Assay results as given in patent US6800794B1, “Nucleic acid comprising the sequence of a promoter unductible by stress and a gene sequence coding for a stilbene synthase” (Champagne Moet & Chandon, priority 1998, dated 2004).

Tests used:
[1] = test system: Botrytis cinerea mycelium, strain 916T; assay: Inhibition of the growth of Botrytis cinerea mycelium on malt medium containing resveratrol; type: cell-based
Experimental: FIG. 9: Inhibition of the growth of Botrytis cinerea mycelium, strain 916T, after 7 days at 20° C.
The mycelium is cultured on a malt/glucose medium containing different concentrations of resveratrol.
A study was carried out of the action of the molecule on the growth of mycelial hyphae of Botrytis cinera in culture on a malt/agar medium containing a resveratrol dilution range of from 10^−1 M to 3.7.10^−3 M, with the hyphae being incubated at ambient temperature for 7 days. […] However, this inhibition […] progressively after 7 days of culture under these conditions, which are otherwise very favourable to the growth of the fungus. After 20 days, the fungus finally infects the whole of the culture surface.

[2] = test system: zoospores of Plasmopora viticola; details: according to DAÏ (1994); cited from earlier work
Botrytis cinerea conidia = details: according to PONT and PEZET (1990); cited from earlier work

IC50 ([1]; Botrytis cinerea, 168 h, read-out: inhibitory effect on growth of mycelial hyphae (IC50), malt/agar medium, 7 days, ambient temperature (FIG. 9: 20° C.)): 500 µM
SMILES: Oc1ccc(C=Cc2cc(O)cc(O)c2)cc1 [resveratrol]
inhibitory activity on the growth of the mycelium ([1]; at 37 μmol.^−1, 7 days): very slight inhibitory activity | concentrations giving an exponential decrease in the mean growth diameter of the fungus ([1]; malt/agar medium, 7 days): greater than 125 μmol.1^−1 | effect on the development of the zoospores [2]: inhibitory effect | blocking of germination of conidia (Botrytis cinerea conidia): does not block
